Molecular target: T1, EngD (Endoglucanase D) (Clostridium cellulovorans, UniProt P28623)
T1 sequence (P28623 32-515): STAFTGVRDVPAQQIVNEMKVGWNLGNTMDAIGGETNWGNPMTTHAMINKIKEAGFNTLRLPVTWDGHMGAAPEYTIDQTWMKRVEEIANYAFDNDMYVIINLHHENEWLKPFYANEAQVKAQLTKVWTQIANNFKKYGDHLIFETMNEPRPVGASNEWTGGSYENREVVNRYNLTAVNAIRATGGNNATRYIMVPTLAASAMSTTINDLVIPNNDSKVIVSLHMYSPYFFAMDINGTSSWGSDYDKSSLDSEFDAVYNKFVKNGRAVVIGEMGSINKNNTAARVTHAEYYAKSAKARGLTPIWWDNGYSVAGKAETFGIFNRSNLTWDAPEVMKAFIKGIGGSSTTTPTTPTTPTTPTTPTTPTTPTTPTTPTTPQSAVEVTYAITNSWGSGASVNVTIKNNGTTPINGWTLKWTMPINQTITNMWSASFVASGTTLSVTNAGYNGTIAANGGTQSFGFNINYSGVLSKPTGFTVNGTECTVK
Test: HPLC of hydrolysis products
Format: biochemical
Settings: 2 mM substrate, 100 mM sodium citrate pH 5.0, 37 °C, 30 min

For OC[C@H]1O[C@@H](O[C@H]2[C@H](O)[C@@H](O)[C@H](O[C@H]3[C@H](O)[C@@H](O)[C@H](O[C@H]4[C@H](O)[C@@H](O)[C@H](O[C@H]5[C@H](O)[C@@H](O)[C@H](O[C@H]6[C@H](O)[C@@H](O)C(O)O[C@@H]6CO)O[C@@H]5CO)O[C@@H]4CO)O[C@@H]3CO)O[C@@H]2CO)[C@H](O)[C@@H](O)[C@@H]1O (stereo partly shown) [G6, cellohexaose], the “HPLC of hydrolysis products” value was “Wild type EngD produced an equal amount cellotriose and cellobiose in the degradation of cellohexaose”.
